Reference: ChEMBL document CHEMBL1201862, “PubChem BioAssay data set” (2004)
Values belong to the compound of their own block, whether it stands above or below them. Active and inactive are the calls of the source.

Columns and labels:
Melanocortin receptor 4 = Melanocortin receptor 4 (Homo sapiens, UniProt P32245); format: functional, cell-based;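 note: Cell-based assay with luminescence read-out, confirmatory dose-response testing for agonist activity of biased ligands at MC4R; human U2OS cells with tagged receptor and beta-arrestin; potency of agonists that increase receptor coupling to beta-arrestin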
[1] = molecular target: Melanin-concentrating hormone receptor 1 (Homo sapiens, UniProt Q99705); test: Late-stage fluorescence-based counterscreen for antagonists of the G-protein coupled receptor 7 (GPR7): cell-based dose response assay to identify antagonists of the melanin-concentrating hormone receptor 1 (MCHR1) Set 6.; format: functional
[2] = molecular target: T1, Neuropeptides B/W receptor type 1 (Homo sapiens, UniProt P48145); test: human NPBW1 receptor blockade, IC50 – cell-based, fluorescence, dose response, set 6, late-stage follow-up (AID 588583); format: functional
T1 sequence (P48145 whole entry): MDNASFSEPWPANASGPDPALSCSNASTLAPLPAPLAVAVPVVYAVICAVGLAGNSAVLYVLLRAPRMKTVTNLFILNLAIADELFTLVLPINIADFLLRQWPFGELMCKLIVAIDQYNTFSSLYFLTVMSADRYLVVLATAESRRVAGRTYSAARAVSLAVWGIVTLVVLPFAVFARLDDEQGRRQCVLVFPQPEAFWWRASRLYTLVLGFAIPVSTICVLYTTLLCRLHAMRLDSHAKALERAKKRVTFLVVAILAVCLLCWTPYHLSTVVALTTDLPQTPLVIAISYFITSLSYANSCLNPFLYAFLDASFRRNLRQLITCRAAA

Protein Wnt-3a = Protein Wnt-3a (Mus musculus, UniProt P27467); test: antagonism of Wnt3a pathway luciferase reporter – Wnt-LIGHT cells, luminescence, selectivity assay for Gli-SUFU antagonist project, dose response (AID 651570); format: functional; details: read-out: IC50_Mean;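 note: Wnt-LIGHT reporter cells stimulated with conditioned medium from Wnt3a-producing cells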
Mu-type opioid receptor = Mu-type opioid receptor (Homo sapiens, UniProt P35372); test: (§1) Counterscreen for agonists of heterodimerization of the mu 1 (OPRM1) and delta 1 (OPRD1) opioid receptors: Luminescence-based cell-based high throughput dose response assay to identify agonists of OPRM1 homodimerization.; format: functional
[3] = non-specific 3'UTR reporter inhibition in Clone20-Shn3RL – cell-based, Renilla luciferase, cherry-picked, counter-screen for Shn3 inhibitor project, dose response (AID 624133); format: functional
[4] = viability of HCT116 lacking mutant beta-catenin – cell-based, human colon tumor, dose response (AID 1045); format: functional;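 note: HCT116 colon tumor cells with beta catenin knocked out; cells exposed to compound for 60 hours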
[5] = molecular target: T2, High affinity choline transporter 1 (Homo sapiens, UniProt Q9GZV3); test: human choline transporter blockers, potency – cell-based, 5-point CRC, membrane potential dye, dose response (AID 504840); format: functional
T2 sequence (Q9GZV3 whole entry): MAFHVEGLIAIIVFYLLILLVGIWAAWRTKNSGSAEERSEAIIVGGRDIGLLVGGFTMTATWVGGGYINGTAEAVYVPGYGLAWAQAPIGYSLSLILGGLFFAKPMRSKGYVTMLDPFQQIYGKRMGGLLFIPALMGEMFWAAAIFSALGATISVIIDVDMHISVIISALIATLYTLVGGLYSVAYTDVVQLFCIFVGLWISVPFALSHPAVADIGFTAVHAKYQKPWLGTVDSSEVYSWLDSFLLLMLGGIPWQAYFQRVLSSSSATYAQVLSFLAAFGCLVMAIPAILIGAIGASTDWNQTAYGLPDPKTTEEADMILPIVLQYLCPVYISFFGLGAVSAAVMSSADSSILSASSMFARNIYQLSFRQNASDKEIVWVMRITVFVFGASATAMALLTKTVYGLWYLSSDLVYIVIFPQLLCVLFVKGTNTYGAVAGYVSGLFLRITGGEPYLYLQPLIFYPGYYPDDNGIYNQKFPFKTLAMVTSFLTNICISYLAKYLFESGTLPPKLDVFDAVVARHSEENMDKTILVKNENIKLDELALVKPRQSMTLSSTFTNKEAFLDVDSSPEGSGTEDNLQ

[6] = NIH3T3 cell viability loss – ATP luminescence, mouse fibroblasts, counter-screen, dose response (AID 2010); format: functional, cell-based;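 note: cells exposed to compound for about 90 hours before reading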
[7] = molecular target: 5-hydroxytryptamine receptor 5A (Homo sapiens, UniProt P47898); test: Counterscreen for agonists of OPRM1-OPRD1 heterodimerization: luminescence-based cell-based high throughput dose response assay to identify agonists of 5-hydroxytryptamine (serotonin) 5A receptor (HTR5A). [Related pubchem assays (depositor defined):AID504326, AID504355, AID504692, AID504904, AID504905]; format: functional
[8] = molecular target: Delta-type opioid receptor (Homo sapiens, UniProt P41143); test: as §1, with “of OPRD1” for “of OPRM1”, “homodimerization. [Related pubchem assays (depositor defined):AID504326, AID504355, AID504692, AID504904, AID504905]” for “homodimerization.”; format: functional
[9] = Trypanosoma cruzi growth suppression in host cells – NIH3T3 host cells, beta-gal luminescence, confirmation (AID 2044); format: functional, cell-based;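 note: intracellular parasites grown in NIH/3T3 mouse fibroblasts as host cells; luminescent beta-galactosidase reporter signal from transgenic T. cruzi replicating inside host cells; inhibitors lower the luminescence signal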
[10] = reduction of Shn3 3'UTR-driven luciferase in osteoblasts – cell-based, Clone20 osteoblasts, firefly luciferase, cherry-picked, dose response (AID 624132); format: functional;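 note: firefly luciferase luminescence from reporter carrying the Shn3 3'UTR in osteoblasts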
[11] = loss of viability in HepG2 cells – cell-based, CellTiter-Glo, cherry-picked, cytotoxicity control for Shn3 inhibitor project, dose response (AID 624134); format: functional
[12] = viability of PTEN-deleted HCT116 cells – cell-based, HCT116 PTEN knockout, dose response (AID 1047); format: functional;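 note: HCT116 colon tumor cells with PTEN knocked out; cells exposed to compound for 60 hours before readout; potency for loss of cell viability measured by luminescence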
[13] = molecular target: T2, High affinity choline transporter 1; test: human choline transporter blockers, potency – cell-based, 10-point CRC, membrane potential dye, dose response (AID 588401); format: functional;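 note: membrane potential dye fluorescence of choline-evoked depolarization via CHT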
Paired box protein Pax-8 = Paired box protein Pax-8 (Homo sapiens, UniProt Q06710); test: PAX8 transcriptional activity inhibition in RMG-I – RMG-I cells, luciferase, cherry-pick, dose response (AID 687027); format: functional, cell-based;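 note: luciferase reporter driven by Pax8 target thyroperoxidase promoter measured by SteadyGlo luminescence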
[14] = molecular target: Glucose-6-phosphate 1-dehydrogenase (Homo sapiens, UniProt P11413); test: inhibition of Homo sapiens G6PD, dose series – biochemical, fluorescence, selectivity assay for P. falciparum G6PD inhibitor project, dose response (AID 504792); format: functional
[15] = A549 cell cytotoxicity, dose response, cytotoxicity control, plate reader, cherry-pick, antagonist series (AID 743412); format: functional, cell-based
[16] = blockers of bursicon-stimulated LGR2 cAMP reporter – cell-based, HEK293, CRE-luciferase reporter, cherry pick, set 2, dose response (AID 743343); format: functional;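 note: transfected cells were stimulated with diluted bursicon conditioned medium after compound addition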
[17] = general cell-killing toxicity readout – plate reader, dry powder samples, cytotoxicity control for PAX8 inhibitor project, dose response (AID 743021); format: functional, cell-based
[18] = toxicity toward HepG2 liver cells – cell-based, plate reader, cherry-pick, antagonist series, cytotoxicity control, dose response (AID 743416); format: functional
[19] = molecular target: Mitochondrial peptide methionine sulfoxide reductase (Bos taurus, UniProt P54149); format: functional;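 note: absorbance read-out, biochemical high-throughput dose-response screen for MsrA inhibitors, confirmatory; recombinant bovine MsrA coupled to E. coli TrxB with NADPH and selenocystamine; potency is for inhibitors of MsrA activity on DMSO substrate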
[20] = blockade of melanocortin 4 receptor signaling – cell-based, plate reader, cherry pick, counter-screen for LGR2 antagonist project, dose response (AID 743444); format: functional;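 note: transfected HEK 293 cells stimulated with alpha-MSH peptide; potency of inhibitors of the alpha-MSH evoked signal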
[21] = viability loss in HEK293 cells – cell-based, plate reader, cherry-picked samples, cytotoxicity control, dose response (AID 743446); format: functional
[22] = molecular target: T3, Ubiquitin-conjugating enzyme E2 N (Homo sapiens, UniProt P61088); format: functional
T3 sequence (P61088 whole entry): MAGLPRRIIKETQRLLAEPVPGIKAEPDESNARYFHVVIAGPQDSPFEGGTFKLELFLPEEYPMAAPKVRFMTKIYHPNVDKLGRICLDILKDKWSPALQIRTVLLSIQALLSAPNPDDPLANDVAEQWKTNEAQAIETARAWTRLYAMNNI

[23] = molecular target: Arf-GAP with SH3 domain, ANK repeat and PH domain-containing protein 1 (Homo sapiens, UniProt Q9ULH1); format: functional;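 note: biochemical fluorescence polarization dose–response screen measuring inhibition of ASAP1; ASAP1 GAP domain stimulating GTP hydrolysis by truncated human ARF1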
Bcl-2-related protein A1 = molecular target: T4, Bcl-2-related protein A1 (Mus musculus, UniProt Q07440); format: functional;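 note: confirmatory dose–response counterscreen on Bfl-1, used to check hits from a UBC13 polyubiquitin inhibitor campaign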
T4 sequence (Q07440 whole entry): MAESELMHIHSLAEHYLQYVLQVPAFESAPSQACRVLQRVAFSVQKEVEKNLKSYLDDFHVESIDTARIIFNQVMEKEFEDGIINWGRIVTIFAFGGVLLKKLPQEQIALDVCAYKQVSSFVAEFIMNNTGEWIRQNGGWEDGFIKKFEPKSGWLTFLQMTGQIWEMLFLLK

[24] = molecular target: T3, Ubiquitin-conjugating enzyme E2 N; format: functional; remark: listed apart in the source

Melanin-concentrating hormone receptor 1, sequence (Q99705 whole entry): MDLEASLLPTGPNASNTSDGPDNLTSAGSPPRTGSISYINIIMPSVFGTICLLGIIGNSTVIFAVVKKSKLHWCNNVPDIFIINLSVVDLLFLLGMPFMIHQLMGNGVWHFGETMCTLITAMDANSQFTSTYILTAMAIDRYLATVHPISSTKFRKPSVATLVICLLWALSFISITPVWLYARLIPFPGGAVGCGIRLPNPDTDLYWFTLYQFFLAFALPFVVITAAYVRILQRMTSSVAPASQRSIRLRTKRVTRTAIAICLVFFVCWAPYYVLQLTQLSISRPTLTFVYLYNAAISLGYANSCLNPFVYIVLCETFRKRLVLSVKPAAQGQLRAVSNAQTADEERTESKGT
Melanocortin receptor 4, sequence (P32245 whole entry): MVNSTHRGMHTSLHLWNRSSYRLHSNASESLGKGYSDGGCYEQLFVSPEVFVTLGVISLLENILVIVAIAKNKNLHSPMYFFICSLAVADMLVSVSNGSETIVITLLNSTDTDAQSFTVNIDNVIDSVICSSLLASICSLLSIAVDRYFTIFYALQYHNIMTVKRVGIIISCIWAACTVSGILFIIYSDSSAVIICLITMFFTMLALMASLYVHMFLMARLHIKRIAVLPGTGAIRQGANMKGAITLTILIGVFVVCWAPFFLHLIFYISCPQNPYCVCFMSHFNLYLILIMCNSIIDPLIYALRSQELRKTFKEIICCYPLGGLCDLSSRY
Mu-type opioid receptor, sequence (P35372 whole entry): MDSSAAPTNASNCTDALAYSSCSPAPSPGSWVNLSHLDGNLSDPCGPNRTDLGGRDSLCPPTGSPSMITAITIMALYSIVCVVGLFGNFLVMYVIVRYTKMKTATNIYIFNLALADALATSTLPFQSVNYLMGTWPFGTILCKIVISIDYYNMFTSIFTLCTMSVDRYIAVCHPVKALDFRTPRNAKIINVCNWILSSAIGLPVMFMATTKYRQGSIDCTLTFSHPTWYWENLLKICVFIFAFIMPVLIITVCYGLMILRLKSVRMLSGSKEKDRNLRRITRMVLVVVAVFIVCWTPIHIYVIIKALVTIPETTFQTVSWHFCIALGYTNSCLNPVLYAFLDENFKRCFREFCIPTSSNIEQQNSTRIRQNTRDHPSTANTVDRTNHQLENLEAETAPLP
5-hydroxytryptamine receptor 5A, sequence (P47898 whole entry): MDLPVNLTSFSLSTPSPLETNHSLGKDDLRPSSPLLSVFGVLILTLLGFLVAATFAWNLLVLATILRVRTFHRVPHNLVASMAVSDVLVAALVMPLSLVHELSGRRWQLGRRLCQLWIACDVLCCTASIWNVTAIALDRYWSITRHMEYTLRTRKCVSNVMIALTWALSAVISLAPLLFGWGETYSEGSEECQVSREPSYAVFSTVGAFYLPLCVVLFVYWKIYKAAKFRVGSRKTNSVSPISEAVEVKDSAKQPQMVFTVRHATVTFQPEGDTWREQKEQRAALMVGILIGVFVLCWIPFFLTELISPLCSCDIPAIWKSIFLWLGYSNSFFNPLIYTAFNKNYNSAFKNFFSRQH
Delta-type opioid receptor, sequence (P41143 whole entry): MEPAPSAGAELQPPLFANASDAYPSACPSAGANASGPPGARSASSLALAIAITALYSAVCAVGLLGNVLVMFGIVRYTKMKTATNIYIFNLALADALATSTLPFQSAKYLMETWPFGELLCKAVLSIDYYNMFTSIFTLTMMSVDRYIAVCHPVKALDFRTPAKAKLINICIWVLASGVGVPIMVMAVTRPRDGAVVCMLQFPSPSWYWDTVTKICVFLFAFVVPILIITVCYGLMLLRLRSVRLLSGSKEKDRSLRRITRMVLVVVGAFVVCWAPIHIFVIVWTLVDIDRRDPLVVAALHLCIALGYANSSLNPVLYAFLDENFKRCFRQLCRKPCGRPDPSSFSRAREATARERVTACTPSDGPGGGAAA
Paired box protein Pax-8, sequence (Q06710 whole entry): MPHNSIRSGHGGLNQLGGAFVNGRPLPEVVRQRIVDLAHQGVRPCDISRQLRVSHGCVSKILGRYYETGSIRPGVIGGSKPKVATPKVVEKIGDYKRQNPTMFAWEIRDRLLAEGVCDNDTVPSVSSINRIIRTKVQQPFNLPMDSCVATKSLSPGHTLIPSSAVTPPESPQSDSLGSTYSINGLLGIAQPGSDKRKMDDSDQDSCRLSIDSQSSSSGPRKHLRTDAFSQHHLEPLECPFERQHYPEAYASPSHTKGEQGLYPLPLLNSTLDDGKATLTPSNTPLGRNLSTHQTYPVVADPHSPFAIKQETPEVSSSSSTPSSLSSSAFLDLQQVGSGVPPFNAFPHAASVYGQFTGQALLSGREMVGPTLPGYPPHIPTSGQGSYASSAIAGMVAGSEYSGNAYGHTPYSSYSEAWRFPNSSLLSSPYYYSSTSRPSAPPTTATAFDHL
Protein Wnt-3a, sequence (P27467 whole entry): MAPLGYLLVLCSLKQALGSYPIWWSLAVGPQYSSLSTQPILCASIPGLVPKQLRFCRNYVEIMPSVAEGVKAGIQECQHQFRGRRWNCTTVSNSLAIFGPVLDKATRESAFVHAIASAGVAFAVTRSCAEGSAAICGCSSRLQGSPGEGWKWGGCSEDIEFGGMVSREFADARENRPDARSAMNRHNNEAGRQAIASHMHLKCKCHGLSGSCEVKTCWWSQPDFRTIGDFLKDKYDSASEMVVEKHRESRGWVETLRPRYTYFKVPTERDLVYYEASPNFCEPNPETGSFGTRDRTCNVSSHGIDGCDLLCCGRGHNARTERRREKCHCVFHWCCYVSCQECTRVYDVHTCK
Mitochondrial peptide methionine sulfoxide reductase, sequence (P54149 whole entry): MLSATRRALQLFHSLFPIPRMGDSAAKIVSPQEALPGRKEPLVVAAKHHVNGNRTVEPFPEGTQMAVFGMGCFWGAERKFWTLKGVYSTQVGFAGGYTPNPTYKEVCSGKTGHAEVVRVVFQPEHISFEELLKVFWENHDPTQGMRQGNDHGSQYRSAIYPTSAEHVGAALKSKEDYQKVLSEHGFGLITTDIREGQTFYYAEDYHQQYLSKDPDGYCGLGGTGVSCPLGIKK
Glucose-6-phosphate 1-dehydrogenase, sequence (P11413 whole entry): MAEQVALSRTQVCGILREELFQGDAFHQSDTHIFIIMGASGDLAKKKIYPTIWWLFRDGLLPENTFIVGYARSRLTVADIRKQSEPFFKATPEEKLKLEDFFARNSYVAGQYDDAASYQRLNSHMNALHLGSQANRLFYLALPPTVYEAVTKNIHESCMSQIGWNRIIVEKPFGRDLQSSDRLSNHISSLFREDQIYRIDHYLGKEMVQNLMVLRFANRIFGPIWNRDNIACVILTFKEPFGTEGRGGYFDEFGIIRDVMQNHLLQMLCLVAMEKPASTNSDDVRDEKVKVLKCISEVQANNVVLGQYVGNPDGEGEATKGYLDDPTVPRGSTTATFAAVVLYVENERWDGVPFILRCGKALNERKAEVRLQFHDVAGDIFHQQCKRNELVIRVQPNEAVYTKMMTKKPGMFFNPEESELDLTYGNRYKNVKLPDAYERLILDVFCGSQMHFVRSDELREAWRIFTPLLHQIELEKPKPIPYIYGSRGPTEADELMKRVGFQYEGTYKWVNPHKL
Arf-GAP with SH3 domain, ANK repeat and PH domain-containing protein 1, sequence (Q9ULH1 whole entry, the tested form may be a part): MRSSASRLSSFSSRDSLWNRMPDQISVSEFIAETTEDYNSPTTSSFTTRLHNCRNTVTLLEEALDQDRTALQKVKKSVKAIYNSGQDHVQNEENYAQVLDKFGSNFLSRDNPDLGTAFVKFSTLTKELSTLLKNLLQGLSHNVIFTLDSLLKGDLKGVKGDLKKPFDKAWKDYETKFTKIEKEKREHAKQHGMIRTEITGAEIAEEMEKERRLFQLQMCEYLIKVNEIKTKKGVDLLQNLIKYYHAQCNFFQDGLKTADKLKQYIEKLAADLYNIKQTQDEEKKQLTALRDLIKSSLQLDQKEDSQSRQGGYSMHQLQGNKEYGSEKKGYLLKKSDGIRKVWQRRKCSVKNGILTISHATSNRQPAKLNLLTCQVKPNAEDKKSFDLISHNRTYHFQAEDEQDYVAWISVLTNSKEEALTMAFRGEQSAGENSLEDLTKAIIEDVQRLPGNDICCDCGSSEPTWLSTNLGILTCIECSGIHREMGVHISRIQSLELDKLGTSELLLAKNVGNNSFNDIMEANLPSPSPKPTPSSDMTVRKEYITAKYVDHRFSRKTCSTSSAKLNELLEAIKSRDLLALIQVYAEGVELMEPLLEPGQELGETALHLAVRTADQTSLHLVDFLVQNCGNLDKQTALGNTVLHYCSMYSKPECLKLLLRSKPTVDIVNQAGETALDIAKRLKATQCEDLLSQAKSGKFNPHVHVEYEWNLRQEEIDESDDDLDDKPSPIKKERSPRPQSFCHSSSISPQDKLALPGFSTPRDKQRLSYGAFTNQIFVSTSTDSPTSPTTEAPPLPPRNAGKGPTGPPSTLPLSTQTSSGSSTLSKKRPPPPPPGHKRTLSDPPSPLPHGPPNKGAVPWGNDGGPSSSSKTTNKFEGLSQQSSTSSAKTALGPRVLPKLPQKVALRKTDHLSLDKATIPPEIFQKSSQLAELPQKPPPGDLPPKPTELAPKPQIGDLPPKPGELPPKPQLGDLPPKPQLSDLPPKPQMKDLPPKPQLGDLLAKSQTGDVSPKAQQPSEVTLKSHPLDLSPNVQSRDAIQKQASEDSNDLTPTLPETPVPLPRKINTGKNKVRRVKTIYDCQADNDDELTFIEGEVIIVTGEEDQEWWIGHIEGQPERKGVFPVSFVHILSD

SMILES: Cc1ccc(Cn2c(=N)n(CC(O)COc3ccccc3)c3ccccc32)cc1 (stereo unspecified)
EC50 (Mu-type opioid receptor): 35.1 µM (inactive) | AC50 [3]: 3.9 µM (active) | EC50 [4]: 5.07 µM (active) | IC50 [5]: 5.55 µM (active) | EC50 [6]: 9.05 µM (active) | EC50 [7]: > 92.5 µM (inactive) | EC50 [8]: > 92.5 µM (inactive) | EC50 [9]: 4.91 µM (active) | AC50 [10]: 2.46 µM (active) | AC50 [11]: 21.4 µM (active) | EC50 [12]: 5.49 µM (active) | IC50 [13]: 7.08 µM (active)

SMILES: Cc1ccc(Cl)cc1N=C1C=C(NS(=O)(=O)c2cccs2)c2ccccc2C1=O
AC50 (Paired box protein Pax-8): 4.82 µM (active) | IC50 [14]: > 80 µM (inactive) | AC50 [15]: 10.1 µM (active) | AC50 [16]: 4.71 µM (active) | AC50 [17]: 17.2 µM (active) | AC50 [18]: 8 µM (active) | IC50 [19]: 155 µM (inactive) | AC50 [20]: 5.09 µM (active) | AC50 [21]: 7.88 µM (active)

SMILES: COCCN=C(S)N=Nc1c(O)[nH]c2ccc([N+](=O)[O-])cc12
IC50 [22]: 1.52 µM (active) | IC50 [23]: 26.8 µM (inactive) | IC50 (Bcl-2-related protein A1): > 20 µM (inactive) | IC50 [24]: 6.15 µM (active)

Other lines, results leading:

EC50 (Melanocortin receptor 4): > 89.2 µM (inactive)
SMILES: N#Cc1sc2nc(-c3cccs3)cc(-c3ccc(F)cc3)c2c1N

IC50 [1]: 1.56 µM (active) | IC50 [2]: 1.56 µM (active)
SMILES: N#CC(c1c(F)c(F)c(F)c(F)c1F)c1c(Cl)cnn(Cc2cccc3ccccc23)c1=O (stereo unspecified)

IC50 (Protein Wnt-3a): 11 µM (active)
SMILES: CCCN1CCC(=O)N([C@H](CSc2ccc(OC)cc2)Cc2ccccc2)CC1

IC50 [1]: 1.26 µM (active) | IC50 [2]: 1.26 µM (active)
SMILES: N#CC(c1ccccc1[N+](=O)[O-])c1c(Cl)cnn(Cc2cccc3ccccc23)c1=O (stereo unspecified)
